Results as given in PubChem BioAssay (NCI).
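Values below derive from 48-hour exposures of cells grown in 96-well plates, with endpoints linearly interpolated between the two concentrations bracketing the appropriate inhibition level. At the GI50, growth is halved. TGI: total growth inhibition.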

Key:
Experiment in all cases: growth of human tumour cells (NCI), 48 h
[1] = tested on: HL-60(TB) leukemia
[2] = tested on: NCI-H23 lung
[3] = tested on: HCT-116 colon
[4] = tested on: MOLT-4 leukemia
[5] = tested on: PC-3 prostate
[6] = tested on: UACC-62 melanoma
[7] = tested on: SK-OV-3 ovarian
[8] = tested on: HOP-62 NSCLC
[9] = tested on: SNB-19 CNS
[10] = tested on: SK-MEL-28 melanoma
[11] = tested on: UO-31 renal
[12] = tested on: KM12 colon
[13] = tested on: HOP-92 NSCLC
[14] = tested on: RPMI-8226 leukemia
[15] = tested on: CAKI-1 renal
[16] = tested on: NCI/ADR-RES ovarian
[17] = tested on: NCI-H226 lung
[18] = tested on: NCI-H522 lung
[19] = tested on: DU-145 prostate
[20] = tested on: SF-268 CNS
[21] = tested on: LOX IMVI melanoma
[22] = tested on: COLO 205 colon
[23] = tested on: SW-620 colon
[24] = tested on: HT29 colon
[25] = tested on: SK-MEL-2 melanoma
[26] = tested on: T-47D breast
[27] = tested on: 786-0 renal
[28] = tested on: K-562 leukemia

Compound C#Cc1ccc(-n2c(/C=C/c3ccc(C(F)(F)F)cc3)nc3ncccc3c2=O)cc1 has a GI50 [1] of 2.07 µM, a TGI [1] of 6.07 µM and a GI50 [2] of 3.9 µM. The TGI [2] was 19 µM, the GI50 [3] was 1.63 µM and the TGI [3] was 3.02 µM. It also gave a GI50 [4] of 3.01 µM, a TGI [4] of 8.81 µM and a GI50 [5] of 1.96 µM. It also gave a TGI [5] of 6.31 µM, a GI50 [6] of 1.62 µM and a TGI [6] of 3.61 µM. For the same compound, the GI50 [7] was 3.61 µM, the TGI [7] was 13.4 µM and the GI50 [8] was 2.43 µM. For the same compound, the TGI [8] was 5.11 µM, the GI50 [9] was 1.91 µM and the TGI [9] was 4.25 µM. It also gave a GI50 [10] of 1.78 µM, a TGI [10] of 3.26 µM and a GI50 [11] of 1.43 µM. The TGI [11] was 3.67 µM, the GI50 [12] was 1.79 µM and the TGI [12] was 3.44 µM. The GI50 [13] was 1.32 µM, the TGI [13] was 3.44 µM and the GI50 [14] was 1.39 µM. It also gave a TGI [14] of 6.28 µM, a GI50 [15] of 2.26 µM and a TGI [15] of 6.22 µM. For the same compound, the GI50 [16] was 2.5 µM, the TGI [16] was 7 µM and the GI50 [17] was 1.99 µM. The TGI [17] was 4.09 µM, the GI50 [18] was 1.65 µM and the TGI [18] was 3.08 µM. The GI50 [19] was 3.76 µM, the TGI [19] was 12.2 µM and the GI50 [20] was 2.27 µM. For the same compound, the TGI [20] was 5.95 µM, the GI50 [21] was 1.89 µM and the TGI [21] was 4.29 µM. For the same compound, the GI50 [22] was 2.23 µM, the TGI [22] was 4.48 µM and the GI50 [23] was 1.92 µM. For the same compound, the TGI [23] was 3.76 µM, the GI50 [24] was 2.03 µM and the TGI [24] was 3.95 µM. It also gave a GI50 [25] of 2.03 µM, a TGI [25] of 4.09 µM and a GI50 [26] of 2.02 µM. It also gave a TGI [26] of 4.97 µM, a GI50 [27] of 2.06 µM and a TGI [27] of 3.7 µM. The GI50 [28] was 2.96 µM and the TGI [28] was 8.71 µM.
